Laboratory results reported in ChEMBL document CHEMBL4840355, “Antitumor and toxicity study of mitochondria-targeted triptolide derivatives using triphenylphosphine (TPP+) as a carrier” (Bioorg Med Chem, 2021).
Active and inactive are the calls of the source. The calls are words filed in the database; no cut-off is given here.

How the values were obtained:
[1] = system: HepG2; experiment: Antitumor activity against human HepG2 cells xenografted in zebra fish AB assessed as tumor growth inhibition at 1 uM measured after 48 hrs by fluorescence microscopic analysis; type: functional, cell-based
[2] = system: NCI-H1975; experiment: Cytotoxicity against human NCI-H1975 cells assessed as inhibition of cell proliferation measured after 48 hrs by MTT assay; type: functional, cell-based; conditions: NCI-H1975, 48 h
[3] = Cytotoxicity against human HBE cells assessed as inhibition of cell proliferation measured after 48 hrs by MTT assay; type: cell-based
[4] = system: L02; experiment: Cytotoxicity against human HL7702 cells assessed as inhibition of cell proliferation measured after 48 hrs by MTT assay; type: cell-based; conditions: L02, 48 h
[5] = system: HepG2; experiment: Cytotoxicity against human HepG2 cells assessed as inhibition of cell proliferation measured after 48 hrs by MTT assay; type: functional, cell-based; conditions: HepG2, 48 h
[6] = system: HeLa; experiment: Cytotoxicity against human HeLa cells assessed as inhibition of cell proliferation measured after 48 hrs by MTT assay; type: functional, cell-based
[7] = Cytotoxicity against human A549/DDP cells assessed as inhibition of cell proliferation measured after 48 hrs by MTT assay; type: functional, cell-based
[8] = system: NCI-H1299; experiment: Cytotoxicity against human NCI-H1299 cells assessed as inhibition of cell proliferation measured after 48 hrs by MTT assay; type: functional, cell-based; conditions: NCI-H1299, 48 h
[9] = system: PANC-1; experiment: Cytotoxicity against human PANC-1 cells assessed as inhibition of cell proliferation measured after 48 hrs by MTT assay; type: functional, cell-based; conditions: PANC-1, 48 h
[10] = system: PC-3; experiment: Cytotoxicity against human PC-3 cells assessed as inhibition of cell proliferation measured after 48 hrs by MTT assay; type: functional, cell-based; conditions: PC-3, 48 h
[11] = system: MCF7; experiment: Cytotoxicity against human MCF7 cells assessed as inhibition of cell proliferation measured after 48 hrs by MTT assay; type: functional, cell-based; conditions: MCF7, 48 h
[12] = system: PC-3; experiment: Potency index, ratio of TP IC50 to test compound IC50 for cytotoxicity against human PC-3 cells; type: functional
[13] = system: NCI-H1975; experiment: Potency index, ratio of TP IC50 to test compound IC50 for cytotoxicity against human NCI-H1975 cells; type: functional
[14] = system: PANC-1; experiment: Potency index, ratio of TP IC50 to test compound IC50 for cytotoxicity against human PANC-1 cells; type: functional
[15] = system: HeLa; experiment: Potency index, ratio of TP IC50 to test compound IC50 for cytotoxicity against human HeLa cells; type: functional
[16] = system: NCI-H1299; experiment: Potency index, ratio of TP IC50 to test compound IC50 for cytotoxicity against human NCI-H1299 cells; type: functional
[17] = system: HepG2; experiment: Potency index, ratio of TP IC50 to test compound IC50 for cytotoxicity against human HepG2 cells; type: functional
[18] = system: MCF7; experiment: Potency index, ratio of TP IC50 to test compound IC50 for cytotoxicity against human MCF7 cells; type: functional
[19] = Potency index, ratio of TP IC50 to test compound IC50 for cytotoxicity against human A549/DDP cells; type: functional
[20] = Toxicity in zebrafish AB assessed as decrease in body length at 0.25 to 2 uM measured at 72 hrs postfertilization; set-up: species or system Danio rerio; conditions: in vivo, dose 0.25-2 µM
[21] = Toxicity in zebrafish AB assessed as mortality at 0.05 to 2 uM measured at 72 hrs postfertilization; set-up: species or system Danio rerio; conditions: in vivo, dose 0.05-2 µM
[22] = system: HepG2; experiment: Antitumor activity against human HepG2 cells xenografted in zebra fish AB assessed as tumor growth inhibition at 0.5 to 1 uM measured after 48 hrs by fluorescence microscopic analysis; type: functional, cell-based; conditions: dose 0.5-1 µM
[23] = Toxicity in 12-month old zebrafish assessed as mortality at 1.6 uM; set-up: species or system Danio rerio; conditions: in vivo
[24] = Toxicity in zebrafish AB assessed as decrease in hatching rate at 0.25 to 2 uM measured at 72 hrs postfertilization; set-up: species or system Danio rerio; conditions: in vivo, dose 0.25-2 µM
[25] = Toxicity in zebrafish AB assessed as pericardial edema at 1 uM; set-up: species or system Danio rerio; conditions: in vivo
[26] = Toxicity in zebrafish AB assessed as increase in embryo malformation rate at 0.5 to 2 uM measured at 72 hrs postfertilization; set-up: species or system Danio rerio; conditions: in vivo, dose 0.5-2 µM
[27] = Hepatotoxicity in transgenic zebrafish Tg(1-fabp:EGFP) assessed as liver damage by measuring decrease in fluorescence intensity and area at 0.5 uM measured after 96 hrs; type: toxicity, tissue-based, Danio rerio; conditions: in vivo

Compound	IC50 [2]	IC50 [3]	IC50 [4]	IC50 [5]	IC50 [6]	IC50 [7]	IC50 [8]	IC50 [9]	IC50 [10]	IC50 [11]	other results
COc1cccc2c1C(=O)c1c(O)c3c(c(O)c1C2=O)C[C@@](O)(C(=O)CO)C[C@@H]3O[C@H]1C[C@H](N)[C@H](O)[C@H](C)O1 [DOXORUBICIN]	2680 nM	1260 nM	351 nM	1970 nM	2090 nM	10.8 µM	1300 nM	3100 nM	539 nM		Activity [1]: Active
CC(C)[C@]12O[C@H]1[C@@H]1O[C@]13[C@]1(O[C@H]1C[C@H]1C4=C(CC[C@@]13C)C(=O)OC4)[C@@H]2OC(=O)CCCCCCCBr	36 nM	132 nM	88 nM	138 nM	265 nM	> 10 µM	89 nM	137 nM	163 nM	300 nM	
CC(C)[C@]12O[C@H]1[C@@H]1O[C@]13[C@]1(O[C@H]1C[C@H]1C4=C(CC[C@@]13C)C(=O)OC4)[C@@H]2OC(=O)CCCCCCCCCCBr	381 nM	479 nM	227 nM	625 nM	1080 nM	> 10 µM	557 nM	366 nM	814 nM	426 nM	
CC(C)[C@]12O[C@H]1[C@@H]1O[C@]13[C@]1(O[C@H]1C[C@H]1C4=C(CC[C@@]13C)C(=O)OC4)[C@@H]2OC(=O)CCCC[P+](c1ccccc1)(c1ccccc1)c1ccccc1.[Br-]	1380 nM	6270 nM	17400 nM	24200 nM	22900 nM	> 10 µM	2240 nM	13400 nM	26400 nM	18700 nM	Ratio IC50 [12]: 100; Ratio IC50 [13]: 100; Ratio IC50 [14]: 100; Ratio IC50 [15]: 100; Ratio IC50 [16]: 100; Ratio IC50 [17]: 100; Ratio IC50 [18]: 100; Ratio IC50 [19]: 100
CC(C)[C@]12O[C@H]1[C@@H]1O[C@]13[C@]1(O[C@H]1C[C@H]1C4=C(CC[C@@]13C)C(=O)OC4)[C@@H]2O [TRIPTOLIDE]	19 nM	30 nM	21 nM	33 nM	43 nM	> 10 µM	49 nM	56 nM	21 nM	22 nM	Activity [1]: Active; Activity [20]: Toxic; Activity [21]: Non-Toxic; Activity [22]: Active; mortality at 1.6 µM [23]: 100%; Activity [24]: Toxic; Activity [25]: Toxic; Activity [26]: Toxic; Activity [27]: Toxic
CCCCC(=O)O[C@@H]1[C@@]2(C(C)C)O[C@H]2[C@@H]2O[C@]23[C@]12O[C@H]2C[C@H]1C2=C(CC[C@@]13C)C(=O)OC2	525 nM	327 nM	317 nM	489 nM	809 nM	> 10 µM	505 nM	140 nM	985 nM	1690 nM	
CCCCCCC(=O)O[C@@H]1[C@@]2(C(C)C)O[C@H]2[C@@H]2O[C@]23[C@]12O[C@H]2C[C@H]1C2=C(CC[C@@]13C)C(=O)OC2	82 nM	119 nM	42 nM	52 nM	242 nM	> 10 µM	134 nM	169 nM	189 nM	213 nM	
CC(C)[C@]12O[C@H]1[C@@H]1O[C@]13[C@]1(O[C@H]1C[C@H]1C4=C(CC[C@@]13C)C(=O)OC4)[C@@H]2OC(=O)CCCCCBr	208 nM	170 nM	85 nM	147 nM	386 nM	> 10 µM	116 nM	387 nM	79 nM	363 nM	
CCCCCC(=O)O[C@@H]1[C@@]2(C(C)C)O[C@H]2[C@@H]2O[C@]23[C@]12O[C@H]2C[C@H]1C2=C(CC[C@@]13C)C(=O)OC2	81 nM	101 nM	153 nM	74 nM	340 nM	> 10 µM	216 nM	86 nM	157 nM	644 nM	
CC(C)[C@]12O[C@H]1[C@@H]1O[C@]13[C@]1(O[C@H]1C[C@H]1C4=C(CC[C@@]13C)C(=O)OC4)[C@@H]2OC(=O)CCCCCCBr	98 nM	116 nM	75 nM	65 nM	252 nM	> 10 µM	89 nM	211 nM	42 nM	92 nM	
CC(C)[C@]12O[C@H]1[C@@H]1O[C@]13[C@]1(O[C@H]1C[C@H]1C4=C(CC[C@@]13C)C(=O)OC4)[C@@H]2OC(=O)CCCCCCC[P+](c1ccccc1)(c1ccccc1)c1ccccc1	190 nM	123 nM	127 nM	60 nM	331 nM	> 10 µM	202 nM	165 nM	163 nM	312 nM	
CC(C)[C@]12O[C@H]1[C@@H]1O[C@]13[C@]1(O[C@H]1C[C@H]1C4=C(CC[C@@]13C)C(=O)OC4)[C@@H]2OC(=O)CCCCBr	163 nM	266 nM	84 nM	231 nM	719 nM	> 10 µM	232 nM	1220 nM	189 nM	384 nM	
CC(C)[C@]12O[C@H]1[C@@H]1O[C@]13[C@]1(O[C@H]1C[C@H]1C4=C(CC[C@@]13C)C(=O)OC4)[C@@H]2OC(=O)CCCCCC[P+](c1ccccc1)(c1ccccc1)c1ccccc1	145 nM	136 nM	319 nM	135 nM	269 nM	> 10 µM	242 nM	239 nM	145 nM	316 nM	
CCCCCCCC(=O)O[C@@H]1[C@@]2(C(C)C)O[C@H]2[C@@H]2O[C@]23[C@]12O[C@H]2C[C@H]1C2=C(CC[C@@]13C)C(=O)OC2	152 nM	141 nM	63 nM	111 nM	449 nM	> 10 µM	194 nM	137 nM	170 nM	554 nM	
CC(C)[C@]12O[C@H]1[C@@H]1O[C@]13[C@]1(O[C@H]1C[C@H]1C4=C(CC[C@@]13C)C(=O)OC4)[C@@H]2OC(=O)CCCCCCCCCC[P+](c1ccccc1)(c1ccccc1)c1ccccc1	265 nM	212 nM	415 nM	355 nM	617 nM	1.02 µM	381 nM	186 nM	149 nM	192 nM	
CCCCCCCCCCC(=O)O[C@@H]1[C@@]2(C(C)C)O[C@H]2[C@@H]2O[C@]23[C@]12O[C@H]2C[C@H]1C2=C(CC[C@@]13C)C(=O)OC2	95 nM	153 nM	188 nM	292 nM	473 nM	> 10 µM	333 nM	320 nM	1260 nM	471 nM	
